1 molecule from patent US10729672B2 (Wyeth LLC, priority 2005, dated 2020) can be followed below.

What all share (assay type): cell-based
Assay [1] relates to MDA-MB-361 [HER-2+ (non-amplified); adenocarcinoma; ATCC HTB 27] cells. Kind of assay: SRB cell survival / growth inhibition, MDA-MB-361 cells. Particulars: MDA-MB-361, lower levels of HER-2 without amplification. The procedure: (§1) The combination was tested in three breast cancer cell lines of differing genotypes.
(§2) Cells from each of these cell lines were incubated in the presence of a range of concentrations ([…]) for each drug. […] Compound dilutions were prepared in the same medium, at 2× final concentration, and 100 μl of the drug dilution was added to the cell-containing wells.
(§3) Serial dilutions of one compound were prepared in the presence of a fixed dose of a second compound. Alternatively, a checkerboard dilution series was employed. Cells were cultured for three days in the presence of the drugs. Untreated cells were included as controls. The percentage of surviving cells was determined using sulforhodamine B (SRB, Sigma-Aldrich, St Louis, Mo.), a protein binding dye. Cellular protein was precipitated in each well by the addition of 50 μl 50% cold trichloroacetic acid. After 1 hour, the plates were washed extensively in water and dried. SRB dye reagent (0.4% SRB in 1% acetic acid, 80 μl per well) was added and plates were kept at room temperature for ten minutes. […] Cell-associated dye was dissolved in 10 mM Tris (150 μl) and the absorbance was read at 540 nm in a microtiter plate reader. The concentration of compound that caused a fixed percentage inhibition of growth was determined by plotting cell survival (relative to untreated cells) against the compound dose.

For assay [2], the system named is BT474 [HER-2+ (amplified); ATCC HTB-20] cells. In words: SRB cell survival / growth inhibition, BT474 cells. How it is done: as §1, §2, §3
In assay [3] the test system is MCF-7 [HER-2−, EGFR−; adenocarcinoma; ATCC HTB22] cells. Kind of assay: SRB cell survival / growth inhibition, MCF-7 cells. Particulars: MCF-7, no HER-2. The procedure: as §1, §2, §3

On to `CCOc1cc2ncc(C#N)c(Nc3ccc(OCc4ccccn4)c(Cl)c3)c2cc1NC(=O)/C=C/CN(C)C` [HKI-272, (E)-N-{4-[3-chloro-4-(2-pyridinylmethoxy)anilino]-3-cyano-7-ethoxy-6-quinolinyl}-4-(dimethylamino)-2-butenamide], for which the “sensitivity of the cell line to the single agent” value is recorded as “less sensitive” in assay [1], “highly sensitive” in assay [2] and “resistant” in assay [3].
